Reference: the supplement of paper PMC10307832

Experiments:
Experiment in all cases: relative viability (nuclei count vs DMSO), 5 days (fraction); higher = more cells survive
MK-2206 = compound: NC1(c2ccc(-c3nc4ccn5c(=O)[nH]nc5c4cc3-c3ccccc3)cc2)CCC1 [MK-2206]
Summary of the method: (§1)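 In 1536-well plates, lung cancer cell lines rested overnight at 37 °C before five library-drug doses (not always all listed), √10 apart, were pinned onto vehicle-anchored plates. Nuclei were counted with MetaXpress from 4× Hoechst images taken after 5 days without medium change. Viability compares treated-well with vehicle-well nuclei as a median over plates, and plates needed control CV below 25% plus at least one doubling to pass.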

Pictilisib = compound: CS(=O)(=O)N1CCN(Cc2cc3nc(-c4cccc5[nH]ncc45)nc(N4CCOCC4)c3s2)CC1 [Pictilisib]
Summary of the method: as §1

Pictilisib + OSI-027 = compound: CS(=O)(=O)N1CCN(Cc2cc3nc(-c4cccc5[nH]ncc45)nc(N4CCOCC4)c3s2)CC1 [Pictilisib] + COc1cccc2cc(-c3nc([C@H]4CC[C@H](C(=O)O)CC4)n4ncnc(N)c34)[nH]c12 [OSI-027] (partner 0.5 µM)
Summary of the method: (§2)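 Five library-drug doses in √10 steps were combined with a fixed anchor-drug dose, or a single drug was given alone, by pin tool to lung cancer cell lines in 1536-well plates the day after seeding. Nuclei were stained and counted after 5 days. Relative viability is the nuclei count in treated wells over that in vehicle wells, taken as the median of duplicate plates.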

Pictilisib + Luminespib = compound: CS(=O)(=O)N1CCN(Cc2cc3nc(-c4cccc5[nH]ncc45)nc(N4CCOCC4)c3s2)CC1 [Pictilisib] + CCNC(=O)c1noc(-c2cc(C(C)C)c(O)cc2O)c1-c1ccc(CN2CCOCC2)cc1 [Luminespib] (partner 0.01 µM)
Summary of the method: as §2

Cell Line | relative viability (MK-2206; 0.01 µM) | relative viability (MK-2206; 0.03162 µM) | relative viability (MK-2206; 0.3162 µM) | relative viability (MK-2206; 1 µM) | relative viability (Pictilisib; 0.02 µM) | relative viability (Pictilisib; 0.06325 µM) | relative viability (Pictilisib; 0.6325 µM) | relative viability (Pictilisib; 1 µM, anchor plate) | relative viability (Pictilisib; 2 µM) | relative viability (Pictilisib + OSI-027; first compound 0.02 µM) | relative viability (Pictilisib + OSI-027; first compound 0.06325 µM) | relative viability (Pictilisib + OSI-027; first compound 0.6325 µM) | relative viability (Pictilisib + OSI-027; first compound 2 µM) | relative viability (Pictilisib + Luminespib; first compound 0.02 µM) | relative viability (Pictilisib + Luminespib; first compound 0.06325 µM) | relative viability (Pictilisib + Luminespib; first compound 0.6325 µM) | relative viability (Pictilisib + Luminespib; first compound 2 µM)
HOP-62 | 0.91 | 1.08 | 0.993 | 0.918 | 1.04 | 1.07 | 0.97 | 0.743 | 0.941 | 0.929 | 0.868 | 0.666 | 0.535 | 1.01 | 0.906 | 0.803 | 0.874
LC-2-ad | 0.969 | 1.05 | 0.994 | 0.876 | 1.05 | 1.07 | 0.619 | 0.496 | 0.594 | 0.881 | 0.781 | 0.475 | 0.396 | 1.17 | 1.07 | 0.757 | 0.607
SW 900 | 0.862 | 0.731 | 0.866 | 0.629 | 1.02 | 0.93 | 0.632 | – | 0.565 | 0.655 | 0.715 | 0.501 | 0.289 | 0.183 | 0.15 | 0.163 | 0.158
NCI-H322M | 0.914 | 1.06 | 0.981 | 1.05 | 0.988 | 0.973 | 0.714 | 0.531 | 0.453 | 0.546 | 0.538 | 0.366 | 0.392 | 0.857 | 0.763 | 0.511 | 0.263
SK-LU-1 | 1.09 | 1.05 | 1.1 | 0.944 | 1.06 | 0.963 | 0.933 | 0.534 | 0.678 | 0.38 | 0.335 | 0.185 | 0.19 | 0.227 | 0.193 | 0.168 | 0.178
NCI-H1734 | 1.01 | 0.988 | 0.764 | 0.795 | 1.04 | 0.998 | 0.623 | 0.475 | 0.435 | 0.552 | 0.554 | 0.291 | 0.224 | 0.174 | 0.179 | 0.164 | 0.171
HCC-44 | 0.967 | 1.01 | 0.989 | 0.723 | 1.03 | 0.975 | 0.991 | 0.612 | 0.644 | 0.587 | 0.5 | 0.405 | 0.266 | 1.11 | 1.01 | 0.54 | 0.344
NCI-H1703 | 0.985 | 0.868 | 0.825 | 0.784 | 0.929 | 0.806 | 0.408 | 0.244 | 0.208 | – | – | – | – | – | – | – | –
NCI-H2170 | 0.93 | 1.03 | 0.923 | 0.877 | 1 | 1.02 | 0.86 | 0.329 | 0.556 | 0.776 | 0.711 | 0.642 | 0.418 | 0.715 | 0.65 | 0.419 | 0.166
NCI-H1395 | 1 | 0.91 | 0.701 | 0.793 | 1.12 | 1.01 | 0.715 | 0.649 | 0.54 | 0.796 | 0.658 | 0.568 | 0.392 | 0.704 | 0.838 | 0.748 | 0.534
NCI-H1355 | 0.977 | 0.997 | 0.9 | 0.788 | 0.977 | 1 | 0.918 | 0.461 | 0.588 | 0.412 | 0.358 | 0.232 | 0.237 | 0.731 | 0.593 | 0.582 | 0.272
NCI-H1650 | 0.854 | 1.01 | 0.883 | 0.946 | 1 | 1.01 | 0.809 | 0.598 | 0.532 | 0.677 | 0.713 | 0.368 | 0.207 | 0.224 | 0.175 | 0.201 | 0.207
IA-LM | 0.904 | 0.992 | 1.02 | 0.691 | 0.924 | 1.03 | 0.941 | 0.373 | 0.476 | – | – | – | – | – | – | – | –
NCI-H1666 | 0.973 | 0.9 | 1.04 | 0.846 | 1.06 | 1.11 | 0.961 | 0.47 | 0.679 | 0.877 | 0.858 | 0.636 | 0.477 | 1.02 | 1.07 | 0.937 | 0.651
HCC-78 | 0.945 | 0.919 | 1.02 | 0.638 | 0.867 | 0.854 | 0.586 | 0.219 | 0.376 | 0.334 | 0.376 | 0.285 | 0.275 | – | – | – | –
H3255 | 0.941 | 1.01 | 0.836 | 0.826 | 1.01 | 0.962 | 0.862 | 0.46 | 0.531 | 0.58 | 0.578 | 0.389 | 0.309 | 0.922 | 0.796 | 0.688 | 0.666
NCI-H23 | 0.944 | 0.909 | 0.896 | 0.783 | 1.01 | 1.09 | 0.808 | 0.525 | 0.478 | 0.708 | 0.625 | 0.392 | 0.25 | 0.203 | 0.219 | 0.198 | 0.203
NCI-H1944 | 1.03 | 1.01 | 0.965 | 0.987 | 1.15 | 0.879 | 0.595 | 0.354 | 0.32 | 0.403 | 0.345 | 0.249 | 0.179 | 0.768 | 0.46 | 0.498 | 0.239
NCI-H1651 | 0.949 | 0.968 | 1.03 | 0.937 | 0.961 | 0.997 | 0.918 | 0.639 | 0.631 | 0.643 | 0.584 | 0.565 | 0.291 | 0.841 | 0.65 | 0.889 | 0.473
EBC-1 | 0.986 | 1.01 | 0.819 | 0.29 | 0.943 | 1.14 | 0.868 | 0.409 | 0.272 | – | – | – | – | – | – | – | –
